One data set addresses T1, human glucagon receptor (Homo sapiens, UniProt P47871).
T1 construct: expressed in transfected cells; host or cells: BHK cells, clone BHK hGCGR A3*25; isolated membranes
Kind of data set: Assay (I)(b): glucagon receptor activation, CRE luciferase reporter gene assay in BHK cells. The data set is classed as cell-based. Conditions: BHK cells expressing human glucagon receptor and CRE luciferase, 3 h incubation; read-out: EC50 hGlucagonR. The method, then: The purpose of this assay is to test the activity, or potency, of the derivatives of the invention, in vitro. The in vitro potency is the measure of human GLP-1 receptor and/or glucagon receptor activation, respectively, in a whole cell assay.
In vitro potency was determined by measuring the response of human GLP-1 or glucagon receptor, respectively, in a reporter gene assay. The assay was performed in a stably transfected BHK cell line that expressed either the human GLP-1 receptor or the human glucagon receptor and contained the DNA for the cAMP response element (CRE) coupled to a promoter and the gene for firefly luciferase (CRE luciferase). […] When assay incubation was completed, the luciferase substrate (luciferin) was added and the enzyme converted luciferin to oxyluciferin and produced bioluminescence. The luminescence was measured as the readout for the assay.
(b) Glucagon Receptor Activation
The cells used in this assay (clone pLJ6′-4-25) were BHK cells with BHK570 as a parent cell line expressing the CRE luciferase gene (clone BHK/KZ10-20-48) and were established by further transfection with the human glucagon receptor (clone pLJ6′ in pHZ-1 vector).
The cells were cultured at 5% CO2 in DMEM medium with 10% FBS, 1× GlutaMAX, 1 mg/mL G418, 240 nM MTX (methotrexate) and 1% pen/strep (penicillin/streptomycin). They were aliquoted and stored in liquid nitrogen. Before each assay, an aliquot was taken up and washed three times in PBS before being suspended at the desired concentration in assay buffer. For 96-well plates the suspension was made to give a final concentration of 5×10 EE3 cells/well.
Assay Medium consisted of DMEM w/o phenol red, 10 mM Hepes, lx GlutaMAX, 2% Ovalbumin and 0.2% Pluronic F-68.
Cell stocks were thawed in a 37° C. water bath. Cells were washed three times in PBS. The cells were counted and adjusted to 5×10 EE3 cells/50 μl (1×10 EE5 cells/mL) in Assay Medium. A 50 μl aliquot of cells was transferred to each well in the assay plate.
Stocks of the test compounds and reference compounds were diluted to a concentration of […] in Assay Medium. Compounds were diluted 10-fold to give the following concentrations: […], 2×10 EE-7 M, 2×10 EE-8 M; 2×10 EE-9 M, 2×10 EE-10 M, 2×10 EE-11 M, 2×10 EE-12 M and 2×10 EE-13 M. For each compound a blank assay buffer control was also included.
A 50 μl aliquot of compound or blank was transferred from the dilution plate to the assay plate. Compounds were tested at the following final concentrations: 1×10 EE-6 M, 1×10 EE-7 M, 1×10 EE-8 M; 1×10 EE-9 M, 1×10 EE-10 M, 1×10 EE-11 M and 1×10 EE-12 M and 1×10 EE-13 M.
The assay plate was incubated for 3 h in a 5% CO2 incubator at 37° C. The assay plate was removed from the incubator and allowed to stand at room temperature for 15 min. A 100 μl aliquot of steadylite plus reagent was added to each well of the assay plate (reagent is light sensitive). Each assay plate was covered with aluminum foil to protect it from light and shaken for 30 min at room temperature. Each assay plate was read in a Packard TopCount NXT instrument.
The data from the TopCount instrument was transferred to GraphPad Prism software. The software performed a non-linear regression (log(agonist) vs response-Variable slope (four parameter)). EC50 values were calculated by the software and reported in pM.

Another data set is described as follows: physchem. The data set is classed as physicochemical. Conditions: pH 7.5. The source says:
Assay (III): ThT Fibrillation Assay for the Assessment of Physical Stability of Peptide Compositions The purpose of this assay is to assess the physical stability of the glucagon derivatives of the invention in aqueous solutions. Low physical stability of a peptide may lead to amyloid fibril formation, which is observed as well-ordered, thread-like macromolecular structures in the sample, which eventually may lead to gel formation. This has traditionally been measured by visual inspection of the sample. However, that kind of measurement is very cumbersome and depending on the observer. Therefore, the application of a small molecule indicator probe is much more advantageous. Thioflavin T (ThT) is such a probe and has a distinct fluorescence signature when binding to fibrils [Naiki et al. (1989) Anal. Biochem. 177, 244-249; LeVine (1999) Methods. Enzymol. 309, 274-284]. Here, as depicted in FIG. 1, F is the ThT fluorescence at the time t. The constant t0 is the time needed to reach 50% of maximum fluorescence. The two important parameters describing fibril formation are the lag-time calculated by t0−2τ and the apparent rate constant kapp 1/τ. Samples were prepared freshly before each assay. Each sample composition is described in the legends. The pH of the sample was adjusted to the desired value using appropriate amounts of concentrated NaOH and HCl. Thioflavin T was added to the samples from a stock solution in H2O to a final concentration of 1 μM. Sample aliquots of 200 μl (250 μM of the glucagon derivative/analogue in 10 mM HEPES buffer, pH 7.5) were placed in a 96 well microtiter plate (Packard OptiPlate™-96, white polystyrene). Usually, four or eight replica of each sample (corresponding to one test condition) was placed in one column of wells. The plate was sealed with Scotch Pad (Qiagen). Incubation at given temperature, shaking and measurement of the ThT fluorescence emission were done in a Fluoroskan Ascent FL fluorescence platereader (Thermo Labsystems). The plate was incubated 37° C. with orbital shaking adjusted to 960 rpm with an amplitude of 1 mm. Fluorescence measurement was done using excitation through a 444 nm filter and measurement of emission through a 485 nm filter. Each run was initiated by incubating the plate at the assay temperature for 10 min. The plate was measured every 20 minutes for a desired period of time. Between each measurement, the plate was shaken and heated as described. After completion of the ThT assay the four or eight replica of each sample was pooled and centrifuged at 20000 rpm for 30 minutes at 18° C. The supernatant was filtered through a 0.22 μm filter and an aliquot was transferred to a HPLC vial. The concentration of peptide in the initial sample and in the filtered supernatant was determined by reverse phase HPLC using an appropriate standard as reference. The percentage fraction the concentration of the filtered sample constituted of the initial sample concentration was reported as the recovery. The measurement points were saved in Microsoft Excel format for further processing and curve drawing and fitting was performed using GraphPad Prism. The background emission from ThT in the absence of fibrils was negligible. The data points were typically a mean of four or eight samples and shown with standard deviation error bars. Only data obtained in the same experiment (i.e. samples on the same plate) were presented in the same graph ensuring a relative measure of fibrillation between experiments. The data set may be fitted to Eq. (1).

*1 amine or outer side, *2 acyl side, *3 side chain or, on linkers, in order; H or OH if unused. Where a SMILES comes first, the peptide text is derived from it. Side-chain parts run from the residue outwards. [ ]: non-standard residue; d: D form. The star is where a group is joined. γGlu = O=C(O)[C@H](CCC(=O)[*:2])N[*:1]; Desaminohistidyl = O=C(CCc1c[nH]cn1)*; Aib = CC(C)(N)C(=O)O

T1 sequence (P47871 26-477): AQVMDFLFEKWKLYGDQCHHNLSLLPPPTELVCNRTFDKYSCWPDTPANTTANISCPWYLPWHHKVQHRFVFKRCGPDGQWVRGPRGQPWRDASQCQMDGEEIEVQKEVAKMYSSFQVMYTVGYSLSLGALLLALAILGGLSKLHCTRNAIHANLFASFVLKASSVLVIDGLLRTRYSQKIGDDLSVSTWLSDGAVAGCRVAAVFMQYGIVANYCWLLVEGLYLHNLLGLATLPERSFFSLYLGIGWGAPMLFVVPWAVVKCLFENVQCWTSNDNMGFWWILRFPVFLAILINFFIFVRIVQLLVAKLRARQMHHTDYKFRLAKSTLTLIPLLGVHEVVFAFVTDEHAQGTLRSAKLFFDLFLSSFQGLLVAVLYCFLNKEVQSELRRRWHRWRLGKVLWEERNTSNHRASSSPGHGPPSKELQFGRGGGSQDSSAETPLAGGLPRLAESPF

In general, EC50 refers to the midpoint of the concentration-response curve. Turning to `CC(=O)N[C@@H](CCC(=O)N[C@@H](CCC(=O)N[C@@H](CCC(=O)NCCCC[C@H](NC(=O)[C@@H](NC(=O)[C@H](Cc1ccccc1)NC(=O)[C@H](CCC(=O)O)NC(=O)[C@H](CCC(N)=O)NC(=O)[C@H](C)NC(=O)[C@H](CCCNC(=N)N)NC(=O)[C@H](CCCNC(=N)N)NC(=O)[C@H](CO)NC(=O)[C@H](CCC(=O)O)NC(=O)[C@H](CC(C)C)NC(=O)[C@H](Cc1ccc(O)cc1)NC(=O)[C@H](CCCCN)NC(=O)[C@H](CO)NC(=O)[C@H](Cc1ccc(O)cc1)NC(=O)[C@H](CC(=O)O)NC(=O)[C@H](CO)NC(=O)[C@@H](NC(=O)[C@H](Cc1ccccc1)NC(=O)[C@@H](NC(=O)CNC(=O)[C@H](Cc1c[nH]cn1)NC(=O)[C@H](CO)NC(=O)CCc1c[nH]cn1)[C@@H](C)O)[C@@H](C)O)C(C)C)C(=O)N[C@@H](Cc1c[nH]c2ccccc12)C(=O)N[C@@H](CC(C)C)C(=O)N[C@@H](CC(C)C)C(=O)N[C@@H](CO)C(=O)N[C@H](C(=O)O)[C@@H](C)O)C(=O)O)C(=O)O)C(=O)O` [Example 18, N^ϵ24-[(4S)-4-[[(4S)-4-[[(4S)-4-acetamido-4-carboxybutanoyl]amino]-4-carboxybutanoyl]amino]-4-carboxybutanoyl]-[Imp1, His3, Glu15, Glu21, Lys24, Leu27, Ser28]-Glucagon] (Desaminohistidyl-SHGTFTSDYSKYLESRRAQEFVK([γGlu-γGlu-γGlu-Ac])WLLST-OH), the EC50 on human glucagon receptor stood at 6 pM. In the data set “physchem”, this compound yielded a recovery at 250 μM of 100%.

As to `CC(=O)N[C@@H](CCC(=O)N[C@@H](CCC(=O)N[C@@H](CCC(=O)N[C@@H](CCC(=O)NCCCC[C@H](NC(=O)[C@@H](NC(=O)[C@H](Cc1ccccc1)NC(=O)[C@H](CC(=O)O)NC(=O)[C@H](CCC(N)=O)NC(=O)[C@H](C)NC(=O)[C@H](CCCNC(=N)N)NC(=O)[C@H](CCCNC(=N)N)NC(=O)[C@H](CO)NC(=O)[C@H](CCC(=O)O)NC(=O)[C@H](CC(C)C)NC(=O)[C@H](Cc1ccc(O)cc1)NC(=O)[C@H](CCCCN)NC(=O)[C@H](CO)NC(=O)[C@H](Cc1ccc(O)cc1)NC(=O)[C@H](CC(=O)O)NC(=O)[C@H](CO)NC(=O)[C@@H](NC(=O)[C@H](Cc1ccccc1)NC(=O)[C@@H](NC(=O)CNC(=O)[C@H](Cc1c[nH]cn1)NC(=O)C(C)(C)NC(=O)CCc1c[nH]cn1)[C@@H](C)O)[C@@H](C)O)C(C)C)C(=O)N[C@@H](Cc1c[nH]c2ccccc12)C(=O)N[C@@H](CC(C)C)C(=O)N[C@@H](CC(C)C)C(=O)N[C@@H](CO)C(=O)N[C@H](C(=O)O)[C@@H](C)O)C(=O)O)C(=O)O)C(=O)O)C(=O)O` [Example 2, N^ϵ24-[(4S)-4-[[(4S)-4-[[(4S)-4-[[(4S)-4-acetamido-4-carboxybutanoyl]amino]-4-carboxybutanoyl]amino]-4-carboxybutanoyl]amino]-4-carboxybutanoyl]-[Imp1, Aib2, His3, Glu15, Lys24, Leu27, Ser28]-Glucagon] (Desaminohistidyl-[Aib]HGTFTSDYSKYLESRRAQDFVK([γGlu-γGlu-γGlu-γGlu-Ac])WLLST-OH), the EC50 at human glucagon receptor was 5 pM. In the data set “physchem”, this compound had a recovery at 250 μM of 104%.

In the data set “physchem”, `CC(=O)N[C@@H](CCC(=O)N[C@@H](CCC(=O)N[C@@H](CCC(=O)N[C@@H](CCC(=O)NCCCC[C@H](NC(=O)[C@H](C)NC(=O)[C@H](CCCNC(=N)N)NC(=O)[C@H](CCCNC(=N)N)NC(=O)[C@H](CO)NC(=O)[C@H](CCC(=O)O)NC(=O)[C@H](CC(C)C)NC(=O)[C@H](Cc1ccc(O)cc1)NC(=O)[C@H](CCCCN)NC(=O)[C@H](CO)NC(=O)[C@H](Cc1ccc(O)cc1)NC(=O)[C@H](CC(=O)O)NC(=O)[C@H](CO)NC(=O)[C@@H](NC(=O)[C@H](Cc1ccccc1)NC(=O)[C@@H](NC(=O)CNC(=O)[C@H](Cc1c[nH]cn1)NC(=O)[C@H](CO)NC(=O)CCc1c[nH]cn1)[C@@H](C)O)[C@@H](C)O)C(=O)N[C@@H](CCC(=O)O)C(=O)N[C@@H](Cc1ccccc1)C(=O)N[C@H](C(=O)N[C@@H](CCC(N)=O)C(=O)N[C@@H](Cc1c[nH]c2ccccc12)C(=O)N[C@@H](CC(C)C)C(=O)N[C@@H](CC(C)C)C(=O)N[C@@H](CO)C(=O)N[C@H](C(=O)O)[C@@H](C)O)C(C)C)C(=O)O)C(=O)O)C(=O)O)C(=O)O` [Example 12, N^ϵ20-[(4S)-4-[[(4S)-4-[[(4S)-4-[[(4S)-4-acetamido-4-carboxybutanoyl]amino]-4-carboxybutanoyl]amino]-4-carboxybutanoyl]amino]-4-carboxybutanoyl]-[Imp1, His3, Glu15, Lys20, Glu21, Leu27, Ser28]-Glucagon] (Desaminohistidyl-SHGTFTSDYSKYLESRRAK([γGlu-γGlu-γGlu-γGlu-Ac])EFVQWLLST-OH) gave a recovery at 250 μM of 88%.

The values above are taken from US9963496B2, “Stable glucagon analogues and use for treatment of hypoglycaemia” (Novo Nordisk A/S, priority 2014, dated 2018).
